Measurements published in patent US20150119352A1, “DINUCELOSIDE POLYPHOSPHATES FOR THE TREATMENT OF PAIN” (GlobalAcorn Ltd., priority 2012, published 2015).

Columns and labels:
[1] = test system: native P2X3 receptors, nodose ganglia (NG) neurons; assay: α,β-meATP-induced currents in cultured nodose ganglia neurons; assay type: cell-based, rat; conditions: 1 μM
Protocol: (§1) Rat trigeminal (TG), nodose (NG) or dorsal root ganglion (DRG) neurons in culture were prepared as described previously (Sokolova et al., 2001; Simonetti et al., 2006). Neurons were plated on poly-L-lysine (0.2 mg/mL)-coated Petri dishes and cultured for 1 to 2 days under an atmosphere containing 5% CO2. Cells were used within 2 days of plating when they lacked processes. HEK293T cells were prepared as reported previously (Fabbretti et al., 2004; Sokolova et al., 2004) and transfected with rat full-length P2X3 cDNA subcloned into pIRES2-EGFP (Clontech, Mountain View, Calif., USA).
(§2) Trigeminal, nodose, DRG neurons or HEK cells were recorded in the whole-cell configuration while being continuously superfused (at 2 mL/min) with control solution containing (in mM): 152 NaCl, 5 KCl, 1 MgCl2, 2 CaCl2, 10 glucose, and 10 HEPES; pH was adjusted to 7.4 with NaOH and osmolarity was adjusted to 320 mOsM with glucose. […] Responses to selective P2X3 receptor agonist α,β-methylene-ATP (α,β-meATP; resistant to ectoATPase hydrolysis, Sigma-Aldrich) were measured using an EPC-9 amplifier and HEKA Patch Master software (HEKA Electronik, Germany). Cells were voltage-clamped at −70 mV. In most cells, series resistance was compensated by 80%. […]
(§3) The peak amplitudes of the responses were measured using HEKA Patch Master software. […]

[2] = test system: native P2X3 receptors, trigeminal ganglia (TG) neurons; assay: α,β-meATP-induced currents in cultured trigeminal ganglia neurons; assay type: cell-based, rat; conditions: 1 μM, TG neurons
Protocol: as §1, §2, §3

[3] = target: T1, native P2X3 receptors, trigeminal ganglia (TG) neurons (Rattus norvegicus, UniProt P49654); assay: as above; assay type: cell-based; conditions: read-out: inhibition (suppression) of the peak current
T1 construct: Modulation of Native P2X3 Receptors in Rat Cultured Sensory Neurons; endogenous in cells; host or cells: primary cultured rat trigeminal ganglion and dorsal root ganglion neurons
T1 sequence (P49654 1-397): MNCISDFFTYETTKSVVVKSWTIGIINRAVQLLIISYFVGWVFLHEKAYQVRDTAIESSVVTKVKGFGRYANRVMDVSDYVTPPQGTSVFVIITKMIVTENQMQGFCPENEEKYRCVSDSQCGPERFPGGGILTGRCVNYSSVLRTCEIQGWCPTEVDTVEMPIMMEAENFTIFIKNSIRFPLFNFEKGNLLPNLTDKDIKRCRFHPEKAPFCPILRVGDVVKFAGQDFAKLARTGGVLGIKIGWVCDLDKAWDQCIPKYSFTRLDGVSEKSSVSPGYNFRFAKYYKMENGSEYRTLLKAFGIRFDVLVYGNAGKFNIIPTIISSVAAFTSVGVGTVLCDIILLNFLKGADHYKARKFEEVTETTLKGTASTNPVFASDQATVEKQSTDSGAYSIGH
Protocol: as §1, §2, §3

[4] = test system: native P2X3 receptors, dorsal root ganglia (DRG) neurons; assay: α,β-meATP-induced currents in cultured dorsal root ganglia neurons; assay type: cell-based, rat; conditions: 1 μM, DRG neurons
Protocol: as §1, §2, §3

[5] = target: T2, native P2X3 receptors, dorsal root ganglia (DRG) neurons (Rattus norvegicus, UniProt P49654); assay: as above; assay type: cell-based; conditions: DRG neuron, read-out: inhibition (suppression) of the peak current
T2 construct: Modulation of Native P2X3 Receptors in Rat Cultured Sensory Neurons; endogenous in cells; host or cells: primary cultured rat trigeminal ganglion and dorsal root ganglion neurons
T2 sequence (P49654 1-397): T1 sequence (P49654 1-397)
Protocol: as §1, §2, §3

SMILES: Nc1ncnc2c1ncn2[C@@H]1O[C@H](COP(=O)(O)OP(=O)(O)NP(=O)(O)OP(=O)(O)OC[C@H]2O[C@@H](n3cnc4c(N)ncnc43)C(O)C2O)C(O)C1O (stereo in doubt) [AppNHppA]
- inhibition of sustained residual component [1]: 2±4%
- inhibition (suppression) of the peak current ([1]; 10 μM α,β-meATP): 16.8±11.8%
- inhibition of sustained residual component [2]: 15±6%
- inhibition at 1 µM [3]: 80.3 ± 4.4%
- inhibition of sustained residual component [4]: 18±6%
- inhibition at 1 µM [5]: 79.2 ± 5.6%
